Data from US10913773B2, “Bicyclic peptidyl inhibitor of tumor necrosis factor-alpha” (Ohio State Innovation Foundation, priority 2016, dated 2021).

Experiments:
[1] = target: T1, TNFα-TNFR1 interaction (Homo sapiens, UniProt P01375); assay: ELISA inhibition of TNFα-TNFR1 interaction (immobilized biotinylated TNFα, TNFR1-HRP); type: binding
T1 construct: made in house; host or cells: Escherichia coli (TNFα)
Procedure: Inhibition of TNFα-TNRF1 interaction by ELISA was carried out as previously described (Lian, W.; et al., supra).
Because of its high-throughput capability, FA analysis had been used to generate all of the SAR data described above. […] To confirm the SAR data obtained by FA analysis, some of the compounds in Table 5 (as well as new compounds) were resynthesized without the Lys(FITC) label and employed a more sensitive ELISA-based assay to determine the IC50 values for inhibition of the TNFα-TNFR1 interaction. Briefly, biotinylated TNFα was immobilized onto a NeutrAvidin-coated surface. TNFR1 conjugated with horseradish peroxidase (HRP) (0.5 nM) was added along with different concentrations of a peptide inhibitor. After washing, the amount of bound TNFR1-HRP was quantitated by ELISA. […] In agreement with the FA results, either extension at the C-terminus of β-Ala with another amino acid (C1-67 to C1-70) or side-chain modification of β-Ala (C1-71 to C1-73) decreased TNFα binding.

[2] = tested on: TNFα-induced cell death in WEHI-13VAR fibroblasts (recombinant human TNFα); type: cell-based
Procedure: (§1) WEHI-13VAR fibroblasts were purchased from American Type Culture Collection (ATCC). For maintenance, cells were grown in full medium as RPMI-1640 supplemented with 10% FBS and 1% Abs. For toxicity assay, cells were seeded in a 96-well plate at a density of 5×10^3 cells/well in 100 μL of RPMI-1640/1% Abs supplemented with 10% or 5% FBS and allowed to grow overnight. Varying concentrations of recombinant human TNFα (0-250 ng/mL) or commercial mouse TNFα were (0-100 pg/mL) were incubated with 10 μM peptide and actinomycin D (1 μg/mL) in 100 μL of corresponding growth medium for 1 h at 37° C. Next, the medium in the 96-well plate was removed and replaced with the above fresh mixture and the cells were incubated overnight. Next day, 10 μL of the 3-(4, 5-dimethylthiazolyl-2)-2, 5-diphenyltetrazolium bromide (MTT, final concentration 0.5 mg/ml) was added to each well and incubated at 37° C. for 3 h, following by the addition of 100 μL of the MTT solubilization solution. The plate was kept in the incubator overnight to let the formazan crystals to completely dissolve, and the absorbance at 570 nm was measured on a TECAN plate reader. The LD50 was obtained as plotting the viability as a function of the TNFα concentration.
One of the biological functions of TNFα is to induce death signaling. Inhibitors against the TNFα-TNFR interaction are expected to protect cells against TNFα induced cell death. Therefore, anticachexin C1, C1-74, and C1-74-2 through C1-74-5 were compared for their ability to protect cultured WEHI-13 VAR fibroblasts, which are highly sensitive to TNFα in the presence of actinomycin-D, against TNFα-induced cell death (Khabar, K. S. A.; et al., “WEHI-13VAR: A Stable and Sensitive Variant of WEHI 164 Clone 13 Fibrosarcoma for Tumor Necrosis Factor Bioassay.” Immunol. Lett. 1995, 46:107-110). The cells were treated with a fixed concentration of peptides (10 μM) and varying concentrations of TNFα (0-1 μM), and the fraction of live cells was quantitated by the 3-(4,5-dimethylthiazol-2-yl)-2,5-diphenyltetrazolium bromide (MTT) assay. […] The MTT assay was also conducted at a fixed concentration of TNFα (0.4 ng/mL) but varying concentrations of peptides (0-10 μM).

[3] = tested on: murine TNFα-induced cell death in WEHI-13VAR fibroblasts; assay: MTT assay: protection of WEHI-13VAR fibroblasts against murine TNFα-induced cell death; type: cell-based; conditions: murine TNFα with 10 μM peptide; no inhibitor 10 ng/mL
Procedure: as §1
TNFα inhibitor C1-74-2 was tested for its inhibitory activity against murine TNFα, a necessary step before testing C1-74-2 in a mouse model of inflammatory bowel disease.

[4] = tested on: TNFα-induced JNK phosphorylation; assay: Immunoblot of TNFα-induced JNK phosphorylation in WEHI-13VAR cells; type: cell-based; conditions: TNFα with increasing peptide concentrations (0-20 μM); total JNK unchanged
Procedure: WEHI-13VAR cells were cultured in full growth media (RPMI, 5% FBS, 1% Pen/Strep) in 12-well plates to reach 80% confluence. TNFα (5 ng/mL final concentration) and varying concentrations of peptide inhibitor (0-6 μM) were pre-incubated in 0.5 mL of the growth medium for 30 min in the CO2 incubator. The mixture was then used to treat the cells at 37° C. and in the presence of 5% CO2. After 1.5 h, the solution was removed and the cells were washed with cold DPBS twice. The cells were lysed in 50 μL of lysis buffer (50 mM Tris, pH 7.4, 150 mM NaCl, 1% NP-40, and 5% glycerol) containing a protease inhibitor cocktail (Complete mini, Roche, product number 04693159001) and a phosphatase inhibitor cocktail (PhosSTOP, Roche, product number 04906845001). After incubation on ice for 30 min, the cell lysate was centrifuged at 15,000 rpm for 10 min in a microcentrifuge. An equal volume of 2×SDS-loading buffer was added to the supernatant. The total cellular proteins were separated by SDS-PAGE and transferred electrophoretically to a nitrocellulose membrane, which was subsequently immunoblotted using anti-JNK and anti-p-JNK Thr183/Tyr185 antibodies (both from Santa Cruz Biotechnology). The same samples were also separated on a different SDS-PAGE gel and stained by Coomassie brilliant blue to check the sample loading in all lanes. […]

With `CC(=O)[C@@H]1CCCN(C(=O)[C@@H](Cc2c[nH]cn2)NC(=O)C(N)C(C)C)C1` (stereo partly drawn) [Compound C1-74-2] as the compound, how does the IC50 ([1]; inhibition of TNFα-TNFR1 interaction, unlabeled peptides) read?
Its IC50 is 12 ± 2 nM.

And the “Improvement of IC50 over C1-74 (fold)” value ([1]; relative to C1-74)?
Its value is about 6 fold.

And the EC50 [2]?
Its EC50 is about 50 nM.

What about the “Concentration giving almost complete protection” value ([2]; 0.4 ng/mL TNFα) of the same compound?
The value was at least 100 nM.

And the “LD50 value of TNFα” value [3]?
Its value is 31 ng/mL.

And the p-JNK level [4]?
The p-JNK level was “decreased with the C1-74-2 concentration”.
